Earlier results, collected in US20210072238A1, “IMMOBILIZATION OF PROTEINS WITH CONTROLLED ORIENTATION AND LOAD” (Oregon State University, priority 2019, published 2021).

Conditions: ncAA incorporated in protein

In the case of `Cc1nnc(-c2ccc(C[C@H](N)C(=O)O)cc2)nn1` [Tet2.0, (S)-2-amino-3-(4-(6-methyl-1,2,4,5-tetrazin-3-yl)phenyl) propanoic acid], the “second-order in proteo reaction rate with sTCO” value is given as ~72,000 M^−1 s^−1.
